Measured values taken from ChEMBL document CHEMBL5154881, “Discovery of First-in-Class TAK1-MKK3 Protein-Protein Interaction (PPI) Inhibitor (R)-STU104 for the Treatment of Ulcerative Colitis through Modulating TNF-α Production” (J Med Chem, 2022).

What was measured:
P-gp (human) = assay: Efflux ratio of apparent permeability in dog MDCK-MDR1 cells transfected with human P-gp; format: ADME, cell-based, Canis lupus familiaris
Mus musculus [1] = assay: Antiinflammatory activity against IL-10-/- C57BL/6 mouse model of ulcerative colitis assessed as inhibition ratio of TNF-alpha mRNA expression in colon tissue at 1 mg/kg, IG via gavage and measured after 8 weeks by RT-qPCR analysis relative to control; format: functional; set-up: scale not given: the % may be the effect or the level left
Mus musculus [2] = assay: Antiinflammatory activity against IL-10-/- C57BL/6 mouse model of ulcerative colitis assessed as inhibition ratio of IL-23 mRNA expression in colon tissue at 3 mg/kg, IG via gavage and measured after 8 weeks by RT-qPCR analysis relative to control; format: functional; set-up: scale not given: the % may be the effect or the level left
Mus musculus [3] = assay: Antiinflammatory activity against DSS-induced C57BL/6 mouse model of acute ulcerative colitis assessed as reduction in serum IL-1beta levels administered intragastrically via gavage measured after 7 days by ELISA; format: functional, organism-based; settings: dose 1-10 mg/kg, route ig, time 7.0 day, DDE = dose-dependent effect
[4] = Tmax in 12 hr starved C57 mouse at 30 mg/kg, po measured for 0.083 to 24 hrs post-dose by LC-MS-MS analysis; format: ADME, organism-based; settings: in vivo, time 0.083-24 hrs
[5] = Toxicity in C57 mouse assessed as liver damage at 50 to 500 mg/kg, po administered daily for 14 days; format: organism-based; settings: in vivo, 336 h, dose 50-500 mg/kg, time 14 day
Mus musculus [6] = assay: Antiinflammatory activity against DSS-induced C57BL/6 mouse model of acute ulcerative colitis assessed as inhibition ratio of IL-23 protein expression at 1 mg/kg, IG via gavage measured after 7 days by ELISA relative to control; format: functional; set-up: scale not given: the % may be the effect or the level left; settings: time 7 day
Mus musculus [7] = assay: Antiinflammatory activity against IL-10-/- C57BL/6 mouse model of acute ulcerative colitis assessed as decrease in serum TNF-alpha levels administered intragastrically via gavage measured after 8 weeks by ELISA; format: functional, organism-based; settings: dose 3-10 mg/kg, route ig, DDE = dose-dependent effect
Mus musculus [8] = assay: Antiinflammatory activity against DSS-induced C57BL/6 mouse model of acute ulcerative colitis assessed as inhibition of IL-1beta mRNA expression in colon tissue administered intragastrically via gavage measured after 7 days by RT-qPCR analysis; format: functional, organism-based; settings: route ig, time 7.0 day, DDE = dose-dependent effect
Mus musculus [9] = assay: Antiinflammatory activity against DSS-induced C57BL/6 mouse model of acute ulcerative colitis assessed as reduction in serum TNF-alpha levels administered intragastrically via gavage measured after 7 days by ELISA; format: functional, organism-based; settings: dose 1-10 mg/kg, route ig, time 7.0 day, DDE = dose-dependent effect
Mus musculus [10] = assay: Antiinflammatory activity against IL-10-/- C57BL/6 mouse model of ulcerative colitis assessed as inhibition ratio of TNF-alpha protein expression at 1 mg/kg, IG via gavage and measured after 8 weeks by ELISA relative to control; format: functional; set-up: scale not given: the % may be the effect or the level left
[11] = MRT (0 to infinity) in 12 hr starved C57 mouse at 30 mg/kg, po measured for 0.083 to 24 hrs post-dose by LC-MS-MS analysis; format: ADME, organism-based; settings: in vivo, time 0.083-24 hrs
Mus musculus [12] = assay: Anti-ulcerative colitis activity against DSS-induced ulcerative colitis C57BL/6 mouse model assessed as body weight recovery rate at 10 mg/kg, IG via gavage administered for 7 days and measured everyday relative to control; format: functional; settings: time 7 day
[13] = biological target: T1, Mitogen-activated protein kinase kinase kinase 7 (Homo sapiens) (UniProt O43318); assay: Inhibition of human TAK1 at 50 uM using casein as substrate incubated for 40 mins in presence of [gamma-33P]-ATP by scintillation counting method relative to control
T1 sequence (whole entry): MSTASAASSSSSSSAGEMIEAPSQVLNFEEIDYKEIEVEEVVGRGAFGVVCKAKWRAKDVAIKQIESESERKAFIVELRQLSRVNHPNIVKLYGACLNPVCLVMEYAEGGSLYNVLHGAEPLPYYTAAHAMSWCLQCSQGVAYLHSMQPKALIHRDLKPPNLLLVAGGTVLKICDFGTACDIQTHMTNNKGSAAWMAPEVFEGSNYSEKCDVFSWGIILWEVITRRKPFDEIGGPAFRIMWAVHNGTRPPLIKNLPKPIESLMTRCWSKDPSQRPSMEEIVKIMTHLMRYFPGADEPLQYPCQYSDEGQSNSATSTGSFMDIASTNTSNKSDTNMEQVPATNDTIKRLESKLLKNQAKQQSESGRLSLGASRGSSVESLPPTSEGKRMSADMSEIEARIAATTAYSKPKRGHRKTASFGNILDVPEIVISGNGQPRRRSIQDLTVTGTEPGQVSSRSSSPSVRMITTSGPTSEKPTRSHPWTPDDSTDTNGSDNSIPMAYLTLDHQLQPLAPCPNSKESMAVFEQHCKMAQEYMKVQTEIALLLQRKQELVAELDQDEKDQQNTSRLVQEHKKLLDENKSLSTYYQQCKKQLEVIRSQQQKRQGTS

[14] = AUC (0 to infinity) in 12 hr starved C57 mouse at 30 mg/kg, po measured for 0.083 to 24 hrs post-dose by LC-MS-MS analysis; format: ADME, organism-based; set-up: time upper 24 hrs, dose 30 mg/kg, time lower 0.083 hrs, route po; settings: in vivo
[15] = Cmax in 12 hr starved C57 mouse at 5 mg/kg, iv measured for 0.083 to 24 hrs post-dose by LC-MS-MS analysis; format: ADME, organism-based; set-up: time upper 24 hrs, time lower 0.083 hrs, dose 5 mg/kg, route iv; settings: in vivo
Mus musculus [16] = assay: Antiinflammatory activity against IL-10-/- C57BL/6 mouse model of ulcerative colitis assessed as inhibition ratio of IL-6 protein expression at 1 mg/kg, IG via gavage and measured after 8 weeks by ELISA relative to control; format: functional; set-up: scale not given: the % may be the effect or the level left
Mus musculus [17] = assay: Antiinflammatory activity against DSS-induced C57BL/6 mouse model of acute ulcerative colitis assessed as inhibition ratio of IL-6 mRNA expression in colon tissue at 10 mg/kg, IG via gavage measured after 7 days by RT-qPCR analysis relative to control; format: functional; set-up: scale not given: the % may be the effect or the level left; settings: time 7 day
[18] = Toxicity in C57 mouse assessed as maximum tolerated dose administered orally daily for 14 days; settings: in vivo, route po, time 14 day
[19] = Half life in 12 hr starved C57 mouse at 5 mg/kg, iv measured for 0.083 to 24 hrs post-dose by LC-MS-MS analysis; format: ADME, organism-based; settings: in vivo, time 0.083-24 hrs
Mus musculus [20] = assay: Antiinflammatory activity against DSS-induced C57BL/6 mouse model of acute ulcerative colitis assessed as inhibition ratio of IL-1beta mRNA expression in colon tissue at 10 mg/kg, IG via gavage measured after 7 days by RT-qPCR analysis relative to control; format: functional; set-up: scale not given: the % may be the effect or the level left; settings: time 7 day
Mus musculus [21] = assay: Antiinflammatory activity against DSS-induced C57BL/6 mouse model of acute ulcerative colitis assessed as inhibition ratio of TNF-alpha mRNA expression in colon tissue at 1 mg/kg, IG via gavage measured after 7 days by RT-qPCR analysis relative to control; format: functional; set-up: scale not given: the % may be the effect or the level left; settings: time 7 day
Mus musculus [22] = assay: Antiinflammatory activity against DSS-induced C57BL/6 mouse model of acute ulcerative colitis assessed as inhibition ratio of IL-23 protein expression at 3 mg/kg, IG via gavage measured after 7 days by ELISA relative to control; format: functional; set-up: scale not given: the % may be the effect or the level left; settings: time 7 day
Mus musculus [23] = assay: Anti-ulcerative colitis activity against DSS-induced ulcerative colitis C57BL/6 mouse model assessed as reduction in DAI recovery score ratio at 50 mg/kg, IG via gavage administered for 7 days and measured everyday relative to control; format: functional; set-up: scale not given: the % may be the effect or the level left; settings: time 7 day

COc1ccc([C@H]2CC(=O)c3cc(OC)cc(OC)c32)cc1
efflux ratio (P-gp (human)): 0.33 | Activity (Mus musculus [1]): 24.7% | Activity (Mus musculus [2]): 51.7% | Activity (Mus musculus [3]): Dde | Tmax [4]: 4.98 min | Activity [5]: Non-Toxic | Activity (Mus musculus [6]): 46.2% | Activity (Mus musculus [7]): Dde | Activity (Mus musculus [8]): Dde | Activity (Mus musculus [9]): Dde | Activity (Mus musculus [10]): 40.2% | MRT inf [11]: 12.5 h | Activity (Mus musculus [12]): 52.4% | inhibition [13]: < 10% | AUC [14]: 16991 ng·h/mL | Cmax [15]: 2920 ng/mL | Activity (Mus musculus [16]): 31.4% | Activity (Mus musculus [17]): 76% | MTD at 336 h [18]: 500 mg/kg | half-life [19]: 9.29 h | Activity (Mus musculus [20]): 95.6% | Activity (Mus musculus [21]): 68.6% | Activity (Mus musculus [22]): 51.6% | Activity (Mus musculus [23]): 22.7%
